Assay results from the supplement of paper PMC6045584.
± gives the standard deviation of the averaged measurements.

Key:
ABT-737 = compound: CN(C)CC[C@H](CSc1ccccc1)Nc1ccc(S(=O)(=O)NC(=O)c2ccc(N3CCN(Cc4ccccc4-c4ccc(Cl)cc4)CC3)cc2)cc1[N+](=O)[O-] [ABT-737]; experiment: surviving fraction relative to DMSO-only wells; higher = less growth inhibition; settings: exposure time: 5 days
Procedure, shortened: (§1)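 Tumour cell lines were seeded in log phase at 250–500 cells per well into 384-well plates. Starting 24 hours later, inhibitors were present continuously for five days at 0.5, 1, 5, 10, 50, 100, 500 and 1000 nM. Surviving fraction, from CellTiter-Glo luminescence, is normalised to the median of DMSO-only wells. Three screens per line were required, with replicate Pearson r >0.7 and median Z' >0.3 for a line to be kept.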

NUTLIN3 = compound: COc1ccc(C2=N[C@@H](c3ccc(Cl)cc3)[C@@H](c3ccc(Cl)cc3)N2C(=O)N2CCNC(=O)C2)c(OC(C)C)c1 [NUTLIN3]; experiment: as above; settings: exposure time: 5 days
Procedure, shortened: as §1

Test System	surviving fraction (ABT-737; 0.5 nM)	surviving fraction (ABT-737; 1 nM)	surviving fraction (ABT-737; 5 nM)	surviving fraction (ABT-737; 10 nM)	surviving fraction (ABT-737; 50 nM)	surviving fraction (ABT-737; 100 nM)	surviving fraction (ABT-737; 500 nM)	surviving fraction (ABT-737; 1000 nM)	surviving fraction (NUTLIN3; 0.5 nM)	surviving fraction (NUTLIN3; 1 nM)	surviving fraction (NUTLIN3; 5 nM)	surviving fraction (NUTLIN3; 10 nM)	surviving fraction (NUTLIN3; 50 nM)	surviving fraction (NUTLIN3; 100 nM)	surviving fraction (NUTLIN3; 500 nM)	surviving fraction (NUTLIN3; 1000 nM)
93VU HEADNECK	1.146 ± 0.0083	1.09 ± 0.057	1.21 ± 0.19	1.16 ± 0.031	1.23 ± 0.069	1.17 ± 0.09	1.12 ± 0.09	1.04 ± 0.074	1 ± 0.12	0.982 ± 0.14	1.09 ± 0.1	1.1 ± 0.076	1.12 ± 0.12	1.21 ± 0.013	1.05 ± 0.12	1.02 ± 0.025
CADOES1 SOFT TISSUE	0.92 ± 0.1	0.85 ± 0.18	0.915 ± 0.1	0.874 ± 0.039	0.748 ± 0.081	0.679 ± 0.068	0.679 ± 0.015	0.689 ± 0.049	0.96 ± 0.077	0.925 ± 0.056	0.982 ± 0.036	0.801 ± 0.17	0.841 ± 0.077	0.874 ± 0.037	0.741 ± 0.014	0.517 ± 0.017
YAMATO SYNOVIAL	1.27 ± 0.17	1.32 ± 0.11	1.35 ± 0.16	1.34 ± 0.043	1.33 ± 0.19	1.38 ± 0.029	1.27 ± 0.026	1.27 ± 0.14	1.42 ± 0.029	1.32 ± 0.13	1.43 ± 0.1	1.36 ± 0.1	1.5 ± 0.061	1.41 ± 0.15	1.4 ± 0.086	1.27 ± 0.13
HCC1395 BREAST	1.15 ± 0.075	1.14 ± 0.053	1.27 ± 0.047	1.25 ± 0.061	1.19 ± 0.024	1.32 ± 0.033	1.12 ± 0.069	1.1 ± 0.065	1.18 ± 0.046	1.14 ± 0.1	1.25 ± 0.022	1.12 ± 0.069	1.21 ± 0.06	1.09 ± 0.061	0.999 ± 0.094	1.13 ± 0.16
MDAMB361 BREAST	0.853 ± 0.098	0.812 ± 0.15	0.815 ± 0.058	0.921 ± 0.11	0.871 ± 0.032	0.909 ± 0.085	0.843 ± 0.055	0.846 ± 0.086	0.854 ± 0.032	0.793 ± 0.036	0.809 ± 0.075	0.844 ± 0.097	0.887 ± 0.12	0.923 ± 0.063	0.907 ± 0.067	0.825 ± 0.025
SG32 HEADNECK	1.02 ± 0.13	0.981 ± 0.024	1.04 ± 0.11	1.17 ± 0.15	0.963 ± 0.025	1.23 ± 0.51	1.07 ± 0.0099	0.954 ± 0.045	1.27 ± 0.11	1.14 ± 0.29	1 ± 0.13	1.12 ± 0.095	1.18 ± 0.035	1.31 ± 0.45	0.895 ± 0.29	0.61 ± 0.07
CAL120 BREAST	0.984 ± 0.03	0.9688 ± 0.0083	0.981 ± 0.051	0.984 ± 0.061	0.997 ± 0.018	0.998 ± 0.038	0.992 ± 0.012	0.773 ± 0.11	0.921 ± 0.03	0.919 ± 0.051	0.933 ± 0.039	0.924 ± 0.02	0.9877 ± 0.005	0.9757 ± 0.0032	0.981 ± 0.012	0.977 ± 0.029
MDAMB453 BREAST	1.07 ± 0.046	1.08 ± 0.083	1.1 ± 0.047	1.13 ± 0.067	1.09 ± 0.036	1.1 ± 0.055	1.07 ± 0.057	1 ± 0.047	1.02 ± 0.053	1.05 ± 0.029	1.07 ± 0.053	1.08 ± 0.024	1.13 ± 0.083	1.13 ± 0.13	1.04 ± 0.066	1.05 ± 0.035
DU4475 BREAST	0.935 ± 0.13	0.973 ± 0.042	0.943 ± 0.13	0.865 ± 0.1	0.797 ± 0.13	0.715 ± 0.012	0.373 ± 0.067	0.203 ± 0.047	0.825 ± 0.3	0.909 ± 0.2	1 ± 0.52	1.13 ± 0.49	0.965 ± 0.39	1.12 ± 0.51	0.832 ± 0.42	0.673 ± 0.47
NCIH441 LUNG	1.19 ± 0.027	1.22 ± 0.05	1.115 ± 0.0076	1.11 ± 0.052	1.11 ± 0.045	1.12 ± 0.077	1.11 ± 0.086	1.06 ± 0.15	1.04 ± 0.092	1.04 ± 0.028	1.01 ± 0.058	1.05 ± 0.051	1.07 ± 0.095	1.08 ± 0.1	1.2 ± 0.06	1.14 ± 0.065
CASKI CERVIX	0.912 ± 0.075	0.896 ± 0.038	0.9707 ± 0.0083	0.937 ± 0.021	1.08 ± 0.015	1.06 ± 0.094	0.931 ± 0.092	0.715 ± 0.026	0.945 ± 0.0061	0.899 ± 0.053	0.9873 ± 0.0035	0.979 ± 0.027	1.04 ± 0.074	1.05 ± 0.026	0.972 ± 0.042	0.988 ± 0.05
SJSA1 BONE	1.59 ± 0.063	1.68 ± 0.045	1.63 ± 0.06	1.72 ± 0.049	1.66 ± 0.078	1.81 ± 0.12	1.74 ± 0.045	1.81 ± 0.14	1 ± 0.048	0.997 ± 0.041	1.05 ± 0.053	1 ± 0.064	1.03 ± 0.023	1.04 ± 0.02	0.823 ± 0.011	0.568 ± 0.027
BT549 BREAST	0.996 ± 0.018	0.867 ± 0.047	1.12 ± 0.075	0.782 ± 0.043	1.12 ± 0.029	0.771 ± 0.095	1.04 ± 0.16	0.841 ± 0.097	1.16 ± 0.13	1.07 ± 0.11	1.07 ± 0.063	1.12 ± 0.11	1.18 ± 0.1	1.07 ± 0.067	1.17 ± 0.13	1.08 ± 0.25
SCC36 HEADNECK	1.08 ± 0.18	1.03 ± 0.054	1.15 ± 0.028	1.13 ± 0.056	1.14 ± 0.14	1.12 ± 0.061	0.897 ± 0.035	0.924 ± 0.11	1.07 ± 0.15	1.04 ± 0.087	1.16 ± 0.014	1.04 ± 0.03	1.19 ± 0.069	1.17 ± 0.044	1.04 ± 0.1	1.1 ± 0.051
HCC1806 BREAST	1.06 ± 0.057	1.02 ± 0.15	1.16 ± 0.081	1.207 ± 0.008	1.17 ± 0.11	1.16 ± 0.067	1.05 ± 0.074	1.13 ± 0.04	1.07 ± 0.079	1.04 ± 0.1	1.07 ± 0.15	1.08 ± 0.13	1.07 ± 0.1	1.05 ± 0.17	1.05 ± 0.16	1.17 ± 0.2
SG43 HEADNECK	0.947 ± 0.12	1.06 ± 0.25	0.889 ± 0.076	0.875 ± 0.057	0.769 ± 0.14	0.801 ± 0.069	0.656 ± 0.24	0.752 ± 0.34	1.11 ± 0.1	0.915 ± 0.071	0.928 ± 0.11	0.772 ± 0.064	0.877 ± 0.14	0.778 ± 0.24	0.806 ± 0.24	0.565 ± 0.1
MG63 BONE	1.08 ± 0.034	1.07 ± 0.024	1.12 ± 0.047	1.1 ± 0.05	1.11 ± 0.033	1.09 ± 0.058	1.07 ± 0.016	1.06 ± 0.04	1.01 ± 0.039	1 ± 0.014	1.07 ± 0.046	1.05 ± 0.019	1.06 ± 0.029	1.05 ± 0.018	0.989 ± 0.042	1.01 ± 0.043
ZR751 BREAST	1.08 ± 0.16	1.1 ± 0.096	1.14 ± 0.17	1.02 ± 0.052	1.07 ± 0.071	1.03 ± 0.076	1.07 ± 0.095	1.03 ± 0.15	1.26 ± 0.29	1.24 ± 0.11	1.02 ± 0.18	1.1 ± 0.011	1.11 ± 0.054	1.08 ± 0.23	0.786 ± 0.083	0.747 ± 0.024
CAL51 BREAST	1.03 ± 0.062	0.941 ± 0.066	1.07 ± 0.031	1.04 ± 0.02	1.04 ± 0.021	1.08 ± 0.086	1.09 ± 0.017	0.959 ± 0.048	0.944 ± 0.012	0.928 ± 0.059	0.999 ± 0.053	0.979 ± 0.018	1.05 ± 0.054	1.01 ± 0.038	0.816 ± 0.1	0.707 ± 0.09
MDAMB468 BREAST	1.14 ± 0.06	1.08 ± 0.018	1.08 ± 0.037	1.11 ± 0.066	1.1 ± 0.045	1.11 ± 0.11	1.08 ± 0.03	1.09 ± 0.12	0.994 ± 0.026	0.978 ± 0.019	1.07 ± 0.071	1.02 ± 0.067	1.06 ± 0.07	1.04 ± 0.076	1.04 ± 0.049	0.982 ± 0.041
MCF7 BREAST	0.9422 ± 0.0083	0.957 ± 0.048	0.993 ± 0.02	1 ± 0.039	1.02 ± 0.052	1.02 ± 0.044	0.985 ± 0.02	1 ± 0.022	0.881 ± 0.036	0.841 ± 0.038	0.819 ± 0.013	0.821 ± 0.038	0.939 ± 0.021	0.952 ± 0.051	0.865 ± 0.013	0.85 ± 0.039
